In ChEMBL document CHEMBL5096222, “Discovery of a Trifluoromethoxy Cyclopentanone Benzothiazole Receptor-Interacting Protein Kinase 1 Inhibitor as the Treatment for Alzheimer's Disease” (J Med Chem, 2022):

Columns and labels:
[1] = Cytotoxicity against human HT-29 cells assessed as reduction in cell viability by celltiter-glo luminescent cell viability assay; type: toxicity, cell-based
[2] = biological target: Receptor-interacting serine/threonine-protein kinase 3 (Homo sapiens, UniProt Q9Y572); assay: Binding affinity to recombinant human wild type partial length RIPK3 (M1 to Q307 residues) expressed in bacterial expression system by KINOMEscan TM assay
[3] = biological target: T1, Receptor-interacting serine/threonine-protein kinase 1 (Homo sapiens, UniProt Q13546); assay: Binding affinity to recombinant human wild type partial length RIPK1 (M1 to K305 residues) expressed in bacterial expression system by KINOMEscan TM assay
T1 sequence (Q13546 whole entry): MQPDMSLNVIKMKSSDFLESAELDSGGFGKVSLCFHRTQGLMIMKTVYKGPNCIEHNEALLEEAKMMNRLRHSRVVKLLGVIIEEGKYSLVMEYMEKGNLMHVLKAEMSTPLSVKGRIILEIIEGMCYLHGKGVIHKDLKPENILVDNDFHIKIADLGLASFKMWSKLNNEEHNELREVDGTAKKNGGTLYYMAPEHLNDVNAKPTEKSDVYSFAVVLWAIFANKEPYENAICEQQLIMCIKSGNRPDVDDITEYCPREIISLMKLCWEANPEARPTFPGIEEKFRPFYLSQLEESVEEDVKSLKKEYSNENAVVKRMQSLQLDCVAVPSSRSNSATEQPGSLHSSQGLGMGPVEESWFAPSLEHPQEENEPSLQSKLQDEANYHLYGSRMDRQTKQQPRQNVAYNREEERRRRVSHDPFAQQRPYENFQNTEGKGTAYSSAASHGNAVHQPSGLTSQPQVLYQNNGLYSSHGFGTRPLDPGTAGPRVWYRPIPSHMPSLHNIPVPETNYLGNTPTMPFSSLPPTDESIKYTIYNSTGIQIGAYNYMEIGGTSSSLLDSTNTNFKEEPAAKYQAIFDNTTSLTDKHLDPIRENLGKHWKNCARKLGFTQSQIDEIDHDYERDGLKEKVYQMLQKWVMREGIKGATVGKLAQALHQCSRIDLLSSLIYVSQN

HT-29 = assay: Anti-necroptotic activity in TSZ induced human HT-29 cells assessed as increase in cell viability pretreated with compound followed by TSZ stimulation and measured after 16 hrs by celltiter-glo luminescent cell viability assay; type: functional, cell-based

Sequence of Receptor-interacting serine/threonine-protein kinase 3 (Q9Y572 whole entry, the tested form may be a part): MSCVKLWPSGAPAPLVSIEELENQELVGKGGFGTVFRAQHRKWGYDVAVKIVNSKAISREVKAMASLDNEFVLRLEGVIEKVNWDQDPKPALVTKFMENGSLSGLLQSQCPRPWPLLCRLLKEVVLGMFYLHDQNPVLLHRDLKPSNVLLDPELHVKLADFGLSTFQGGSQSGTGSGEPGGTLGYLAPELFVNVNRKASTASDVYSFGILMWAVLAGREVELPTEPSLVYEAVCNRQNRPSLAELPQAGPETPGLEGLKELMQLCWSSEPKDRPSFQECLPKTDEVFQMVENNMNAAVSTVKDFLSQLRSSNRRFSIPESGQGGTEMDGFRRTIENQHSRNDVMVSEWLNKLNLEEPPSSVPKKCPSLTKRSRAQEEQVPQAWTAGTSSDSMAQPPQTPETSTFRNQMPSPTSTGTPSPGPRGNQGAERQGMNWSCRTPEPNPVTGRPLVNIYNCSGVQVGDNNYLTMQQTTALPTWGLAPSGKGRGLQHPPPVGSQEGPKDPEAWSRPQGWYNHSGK

SMILES | CC50 [1] [nM] | Kd [2] [nM] | Kd [3] [nM] | EC50 (HT-29) [nM]
CN1C(=O)[C@@H](NC(=O)c2nnc(Cc3ccccc3)[nH]2)COc2ccccc21 [GSK2982772] | > 50000 | – | – | –
O=C(Cc1cccc(OC(F)(F)F)c1)Nc1cc(Oc2cc3nc(NC(=O)C4CC4)sc3cc2F)ccc1F | > 50000 | 120 | 49 | 82
O=C1CCC(C(=O)Nc2nc3cc(Oc4ccc(F)c(NC(=O)Cc5cccc(OC(F)(F)F)c5)c4)c(F)cc3s2)C1 (configuration not stated) | > 50000 | > 5000 | 9.6 | 8
O=C(Cc1cccc(OC(F)(F)F)c1)Nc1cc(Oc2cc3nc(NC(=O)C4CC4F)sc3cc2F)ccc1F (configuration not stated) | > 50000 | > 5000 | 18 | 10
O=C1CCC(C(=O)Nc2nc3cc(Oc4ccc(F)c(NC(=O)Cc5cccc(OC(F)(F)F)c5)c4)c(F)cc3s2)CC1 | > 50000 | > 5000 | 4.5 | 10
